Reference: patent publication US10035819B2, “PPAR agonists and methods of use thereof” (The Salk Institute for Biological Studies, priority 2014, dated 2018)
Converted amounts (≈) assume the structure as drawn.

Tests used:
[1] = test system: C57BL6J mice, freeze burn injury to the TA muscle; test: Acute pharmacological activation of PPARδ with oral GW501516, freeze burn injury to the TA muscle; assay type: in vivo
Method: A stainless steel 1 g weight (Mettler-Toledo) equilibrated to the temperature of dry ice was placed directly on the exposed TA for 10 seconds. Following the thermal injury, incision was closed using VetBond (3M). All injury procedures were performed on the left leg, and the right leg was used as control.
Sterile 1% w/v Evans Blue dye in PBS was intraperitoneally injected at 1% volume relative to the body mass of an animal. 7 hours after the injection, injured TA muscles were harvested and snap-frozen by isopentane quenching in liquid nitrogen. Frozen sections were cut in 10 μm thickness, fixed in ice-cold acetone, dipped in xylene and mounted with DPX. Proportion of the stained area over the total area was measured using ImageJ software.
50 mg/kg body weight of BrdU (Sigma) was injected intraperitoneally as solution of 10 mg/mL BrdU in saline. TA muscles were harvested at 7 days after injury and processed for paraffin sections as described above. BrdU incorporation was visualized using the BrdU Labeling and Detection Kit I (Roche) and BrdU+ nuclei were counted and represented as a proportion of total nuclei in a field.
Whole or partial tissues were homogenized by Polytron probe homogenizer in Trizol reagent (Invitrogen). Total RNA was extracted from the homogenates according to the manufacturer's protocol. 1 μg of DNase-treated total RNA was reverse transcribed using Superscript II Reverse Transcriptase (Invitrogen) according to the manufacturer's instructions. cDNAs were diluted 1/40 with ddH2O and used as templates in RT-QPCR reactions with SYBRGreenER qPCR SuperMix detection system (Invitrogen). Samples were prepared in technical triplicates and relative mRNA levels were calculated by using the standard curve methodology and normalized against GAPDH mRNA levels in the same samples.

FGF1a promoter = test: Luciferase reporter assay of the FGF1a promoter co-transfected with PPARδ; assay type: cell-based; details: with ligand
Excerpt: Increased vasculature is one of the hallmarks of oxidative myofibers, which facilitates introduction of immune cells and also supports increased number of satellite cells.

[2] = Solubility (kinetic, thermodynamic); assay type: physicochemical
[3] = Pharmacokinetics in male Wistar rats (i.v. and p.o.); assay type: in vivo
Method: In this example, the PK profile of several PPARδ agonists disclosed herein in male CD-1 mice or Wistar rats was determined. Similar methods can be used to analyze other compounds provided herein. […]
(§1) The concentration of the compound in plasma was determined, as illustrated in FIGS. 9A-9E.

[4] = Pharmacokinetics in male CD-1 mice (i.v. and p.o.); assay type: in vivo
Method: The oral bioavailability and serum half lives of PPARδ ligands were compared in mice. The pharmacokinetics of PPARδ ligands delivered orally (10 mg/kg p.o.) and intravenously (3 mg·kg i.v.) were determined by mass spectrometry.
In this example, the PK profile of several PPARδ agonists disclosed herein in male CD-1 mice or Wistar rats was determined. Similar methods can be used to analyze other compounds provided herein.
(quantity sufficient ie made up to a final volume of 100% with water). All compounds were separately administered to CD-1 mice at 3 mg/kg iv or 10 mg/kg po.
as §1

[5] = assay type: in vitro ADME
[6] = rat, iv, male Wistar rats, 3 mg/Kg i.v., plasma
[7] = rat, po, male Wistar rats, 10 mg/Kg p.o., plasma
[8] = male, mouse, iv, CD-1 mice, 3 mg/Kg i.v., plasma
[9] = male, mouse, po, CD-1 mice, 10 mg/Kg p.o., plasma

In the case of `Cc1cc(SCc2sc(-c3ccc(C(F)(F)F)cc3)nc2C)ccc1OCC(=O)O` [GW501516], the “Evans Blue dye uptake, stained proportion of muscle cross sectional area (CSA)” value ([1]; 5 mg/kg orally, 4 days prior to and 5 days after freeze burn injury, 5 days after injury (vehicle 7.6%)) is reported as 4.9%, the initial inflammatory responses ([1]; 12 hours after injury, with and without ligand) is reported as “similar” and the “TNFα and macrophage marker F4/80 expression by QPCR” value ([1]; 3 days post injury, TA muscle) is reported as “significant reduction”. The “reduction in damaged muscle fibers” value ([1]; 5 days after the injury, vs vehicle) was 34.7%, the “Notch1 and Hes1 expression by QPCR” value ([1]; 9 day treatment) was “increases” and the “PPARδ target genes (PDK4, CPT1b, catalase) in the TA muscle by QPCR” value ([1]; 9 day treatment, 5 mg/kg orally) was “Up-regulation”. The “number of quiescent satellite cells” value ([1]; 9 days or 4 weeks of ligand treatment) was “not significantly affected”, the “proliferative cell number (BrdU)” value ([1]; BrdU injection at 48 hours after the injury) was “marked increase” and the “FGF1a promoter luciferase reporter, PPRE-dependent” value (FGF1a promoter) was “activation”. The solubility kinetic ([2]; kinetic from dmso stock) was 195 µM (≈ 88.4 µg/mL), the solubility thermodynamic ([2]; thermodynamic from solid) was 246 µM (≈ 112 µg/mL) and the Kel ([3]; male Wistar rats, 3 mg/Kg i.v., plasma) was 0.09 h⁻¹. The F ([3]; male Wistar rats, 10 mg/Kg p.o. vs 3 mg/Kg i.v.) was ~100%, the clearance ([3]; male, Wistar, rat, plasma, iv, 3 mg/kg) was 5.1 mL/min/kg and the Vd ([3]; male, Wistar, rat, plasma, iv, 3 mg/kg, male Wistar rats, 3 mg/Kg i.v., plasma, read-out: Vss) was 1.99 L/kg. The Vd ([3]; male, Wistar, rat, plasma, iv, 3 mg/kg, male Wistar rats, 3 mg/Kg i.v., plasma, read-out: Vz) was 3.58 L/kg, the half-life ([3]; male, Wistar, rat, plasma, iv, 3 mg/kg, read-out: Beta T1/2 (converted)) was 8.07 h and the half-life ([3]; male, Wistar, rat, plasma, po, 10 mg/kg, read-out: T1/2 (converted)) was 6.21 h. It also gave an AUC(0-inf) [3, 6] of 9960 ng·h/mL, a C0 [3, 6] of 5280 ng/mL and an MRT [3, 6] of 4.3 h. For the same compound, the AUC(0-inf) [3, 7] was 35100 ng·h/mL, the Cmax [3, 7] was 6920 ng/mL and the Tmax [3, 7] was 2 h. For the same compound, the Kel ([4]; CD-1 mice, 3 mg/Kg i.v., plasma) was 0.11 h⁻¹, the F ([4]; CD-1 mice, 10 mg/Kg p.o. vs 3 mg/Kg i.v.) was 82.1% and the clearance ([4]; male, CD-1, mouse, plasma, iv, 3 mg/kg) was 4.42 mL/min/kg. The Vd ([4]; male, CD-1, mouse, plasma, iv, 3 mg/kg, CD-1 mice, 3 mg/Kg i.v., plasma, read-out: Vss) was 1.71 L/kg, the Vd ([4]; male, CD-1, mouse, plasma, iv, 3 mg/kg, CD-1 mice, 3 mg/Kg i.v., plasma, read-out: Vz) was 2.46 L/kg and the half-life ([4]; male, CD-1, mouse, plasma, iv, 3 mg/kg, read-out: Beta T1/2 (converted)) was 6.44 h. The half-life ([4]; male, CD-1, mouse, plasma, po, 10 mg/kg, read-out: T1/2 (converted)) was 5.98 h, the AUC(0-inf) [4, 8] was 11300 ng·h/mL and the C0 [4, 8] was 5560 ng/mL. For the same compound, the MRT [4, 8] was 4.96 h, the AUC(0-inf) [4, 9] was 31000 ng·h/mL and the Cmax [4, 9] was 3290 ng/mL. The Tmax [4, 9] was 2 h, the “% Parent remained at 15 min, MLM” value [5] was 93/76% and the “% Parent remained at 60 min, MLM” value [5] was 93/76%.
